In a melting point compilation (Tetko et al.):
Residues, ends and D or L forms follow the SMILES beside them. *: point of attachment. Boc = CC(C)(C)OC(=O)*

| melting point [°C] | Structure (SMILES) |
| --- | --- |
| 239 to 241 | O=C(O)c1csc(-c2cnn(-c3ccccc3)n2)n1 |
| 175 to 177 | COc1ccccc1-c1nnc(N)o1 |
| 64 to 66 | Cc1ccc(O)c(C=O)n1 |
| 229 to 231 | CS(=O)(=O)c1cc(C(=O)O)cc([N+](=O)[O-])c1 |
| 149 to 151 | Cc1cc(C(=O)O)c(Cl)cc1F |
| 168 to 170 | CC(C)NC(=O)NCc1ccc(C(=O)O)cc1 |
| 54 to 56 | O=C1C=CC(=O)N1c1ccccc1Sc1ccc(Cl)cc1 |
| 85 to 89 | CC(=O)NCCc1ccc(C(=O)C(C)Cl)cc1 (stereo not drawn) |
| 116 to 118 | N#CC(N)c1ccc2ccccc2c1 (stereo not drawn) |
| 97 to 99 | CC(=O)c1ccc(S(=O)(=O)CC(F)F)cc1 |
| 151 to 153 | COc1ccc2c(c1)CC(=O)NCC2 |
| 157 to 159 | O=C1C(=O)N(CN2CCN(CCO)CC2)c2ccccc21 |
| 36 to 38 | OC(CC1CCCCCN1)c1ccccc1 (stereo not drawn) |
| 128 to 130 | Cc1nn(-c2ccc(F)cc2)c(C)c1C=O |
| 99 to 101 | Nc1ccnc(CO)c1 |
| 239 to 241 | CCN1CCN(S(=O)(=O)c2ccc(CCC(=O)O)cc2)CC1 |
| 179 to 181 | Cc1sc(C(N)=O)cc1N |
| 184 to 186 | O=C(O)c1c[nH]c(-c2cccc([N+](=O)[O-])c2)n1 |
| 209 to 211 | Cc1cn(-c2ccccc2Cl)nc1C(=O)O |
| 210 to 212 | O=c1[nH]c2ccc(S(=O)(=O)Cl)cc2[nH]1 |
| 251 to 253 | O=C(O)c1cc2c(cc1Cl)N1CCCCCC1=NS2(=O)=O |
| 140 to 142 | O=C(O)c1ccc(Br)nn1 |
| 164 to 166 | O=C(Cc1nc2ccccc2s1)Nc1ccc(Cl)cc1 |
| 221 to 223 | Cc1cc(N)n(-c2nc3ccccc3o2)n1 |
| 119 to 121 | Oc1ncc(F)cc1I |

| melting point [°C] | Structure (SMILES) |
| --- | --- |
| 103 to 105 | O=C(O)c1cnns1 |
| 37 to 39 | COC(=O)c1csc(Br)c1 |
| 226 to 228 | CCOC(=O)c1c(N)n(CCO)c2nc3ccccc3nc12 |
| 100 to 102 | Cc1ccc(CC(=O)c2ccc(C)cc2)cc1 |
| 209 to 211 | CN1N=C(c2ccncc2)CC1=O |
| 128 to 130 | N#Cc1cc(Cl)ccc1OC1CCOC1 (stereo not drawn) |
| 136 to 138 | Nc1nc(-c2cccs2)cs1 |
| 91 to 93 | O=C(O)CCn1cc(Cl)cn1 |
| 51 to 53 | CC(C)(Cc1ccccc1)NC(=O)OC(C)(C)C |
| 87 to 89 | Cc1cc(-c2nc(C3CC3)no2)ccc1N |
| 85 to 87 | Cc1cccc(NC2CCNCC2)n1 |
| 144 to 146 | O=C(CCc1ccccc1)NC1CCN(C(=O)CCl)CC1 |
| 239 to 241 | COc1cc(C)cc2c(C)c(C(=O)O)oc12 |
| 140 to 144 | Clc1cc(Cl)c(SSc2cc(Cl)c(Cl)cc2Cl)cc1Cl |
| 176 to 178 | Cc1ccc(NC(=S)NN)cc1C |
| 75 to 77 | Cc1cc(-n2c(C)cc(C=O)c2C)no1 |
| 112 to 115 | Cc1nnc(S)n1C |
| 341 to 343 | O=C(O)c1ccc(-n2cncn2)nc1 |
| 167 to 169 | O=C(O)CCc1nc2ccccc2oc1=O |
| 81 to 83 | Cc1cc(Br)ccc1N1CC(C(=O)O)CC1=O (stereo not drawn) |
| 129 to 131 | Cn1ccc(S(=O)(=O)N2CCNCC2)c1 |
| 94 to 96 | O=C(Nc1ccccn1)C1CCCNC1 (stereo not drawn) |
| 82 to 84 | CC(C)C(C(=O)O)c1cccc(Cl)c1 (stereo not drawn) |
| 166 to 168 | NC(=O)Nc1ccc(F)c(Cl)c1 |
| 56 to 58 | O=C(O)CSCCc1ccccc1 |

| melting point [°C] | Structure (SMILES) |
| --- | --- |
| 139 to 141 | NS(=O)(=O)c1cc([N+](=O)[O-])ccc1F |
| 60 to 62 | COC(=O)c1cc(S(N)(=O)=O)cnc1Cl |
| 180 to 182 | O=C(O)CNC(=O)c1ccc(F)c(F)c1 |
| 213 to 215 | Nc1ccc2nc(N)ccc2c1 |
| 99 to 101 | Nc1ccnc(OCCO)c1 |
| 171 to 173 | NNc1cn[nH]c(=O)c1Cl |
| 183 to 185 | CCOC(=O)c1c(C)n(CC)c2ccc(O)cc12 |
| 27 to 29 | CC(N)c1cccc(S(N)(=O)=O)c1 (stereo not drawn) |
| 193 to 195 | O=C(O)CCSCc1nc2ccccc2c(=O)[nH]1 |
| 199 to 201 | CCNS(=O)(=O)c1cccc(C(=O)O)c1 |
| 299 to 301 | CC(=O)Nc1nc(C(=O)O)cs1 |
| 149 to 151 | Nc1cccc(N2CCNC2=O)c1 |
| 57 to 59 | CCS(=O)(=O)CC(=O)O |
| 79 to 81 | CS(=O)(=O)Nc1ccccc1Br |
| 263 to 265 | Cc1nc(S)nc(O)c1CCO |
| 217 to 219 | O=c1[nH]c2ccc(NCc3cccc(Cl)c3)cc2[nH]1 |
| 135 to 137 | COCCNC(=O)Nc1ccc(N)cc1 |
| 134 to 136 | COC(=O)N1CCCNC(=O)C1 |
| 195 to 197 | COc1cc(-c2cc(C(=O)O)c3ccccc3n2)cc(OC)c1OC |
| 150 to 154 | CN(C)c1ccc(S(N)(=O)=O)cc1N |
| 111 to 113 | O=C(O)CCc1cccc([N+](=O)[O-])c1 |
| 227 to 229 | Nc1ccc(-c2nnc3n2CCCC3)cc1 |
| 83 to 85 | Cc1ccc(OCCCC(=O)O)cc1 |
| 259 to 261 | O=C(O)C1CC(=O)N(c2cn[nH]c2)C1 (stereo not drawn) |
| 160 to 162 | COc1cc(C=O)cc2sc(=O)oc12 |

| melting point [°C] | Structure (SMILES) |
| --- | --- |
| 141 to 143 | O=C(O)C1CC(=O)N(c2ccccc2Cl)C1 (stereo not drawn) |
| 169 to 171 | Cc1c(C(=O)O)nnn1-c1cccc([N+](=O)[O-])c1 |
| 109 to 111 | O=C1CCc2c(Cl)cc(Cl)cc21 |
| 210 to 212 | O=C(O)c1cc(C2CC2)nc2c1cnn2C1CCCCC1 |
| 146 to 148 | CC1C(=O)NCCN1C(=O)c1ccccc1 (stereo not drawn) |
| 124 to 126 | NNC(=S)NCCc1ccccn1 |
| 113 to 115 | CC1(C(=O)O)CCCc2ccccc21 (stereo not drawn) |
| 223 to 225 | O=C(O)/C=C/c1nc2ccccc2o1 |
| 179 to 181 | O=C(O)c1cc(S(=O)(=O)N2CCOCC2)ccc1N1CCCCC1 |
| 163 to 165 | Cc1cccc(C)c1NC(=O)C(=O)O |
| 155 to 158 | Cc1ccc(Oc2ccc(NC(=O)CCl)cc2)cc1 |
| 173 to 175 | CN(CCCC(=O)O)C(=O)c1cc(S(N)(=O)=O)cn1C |
| 99 to 101 | CC(C)(C)c1cc(N)c(C#N)s1 |
| 209 to 211 | CCS(=O)(=O)c1ccc2oc(N)nc2c1 |
| 86 to 88 | CCOC(=O)c1nn(-c2ccccc2)cc1O |
| 124 to 126 | NC(=S)c1cccc(S(=O)(=O)NC2CCCCCCC2)c1 |
| 141 to 143 | O=C(CBr)c1ccc2c(c1)Cc1ccccc1-2 |
| 156 to 158 | CS(=O)c1ccccc1N (stereo not drawn) |
| 132 to 135 | Sc1nnc(SCc2ccccc2Cl)[nH]1 |
| 79 to 81 | Cc1noc(C)c1CNC(=O)CCl |
| 119 to 121 | CC(C)(C)OC(=O)NCC(=O)NCC(=O)O (Boc-Gly-Gly-OH) |
| 186 to 188 | N#Cc1cnc(N)cn1 |

| Structure (SMILES) | melting point [°C] |
| --- | --- |
| NCC(O)c1ccccc1F (stereo not drawn) | 62 to 64 |
| NCC(O)c1ccc(Cl)c(F)c1 (stereo not drawn) | 54 to 56 |
| C#CCNC(=O)CBr | 73 to 75 |
| CC(Cl)C(=O)NCC(F)(F)F (stereo not drawn) | 42 to 44 |
| Cc1nc(N2CCNCC2)sc1C | 72 to 74 |
| COC(=O)c1cc(CBr)on1 | 59 to 61 |
